Test results taken from ChEMBL document CHEMBL4219047, “Optimization of peptide-based polyagonists for treatment of diabetes and obesity” (Bioorg Med Chem, 2018).

Assays:
Type in all cases: functional, cell-based
Glucagon receptor [1] = biological target: T1, Glucagon receptor (Homo sapiens, UniProt P47871); assay: Agonist activity at human GCG receptor expressed in HEK293 cells assessed as increase in cAMP level after 5 hrs by CRE driven luciferase reporter gene assay relative to glucagon
[2] = biological target: T2, Gastric inhibitory polypeptide receptor (Homo sapiens) (UniProt P48546); assay: Agonist activity at human GIP receptor expressed in HEK293 cells assessed as increase in cAMP level after 5 hrs by CRE driven luciferase reporter gene assay relative to GIP; set-up: concentration or dose not given beside the values
T2 sequence (whole entry): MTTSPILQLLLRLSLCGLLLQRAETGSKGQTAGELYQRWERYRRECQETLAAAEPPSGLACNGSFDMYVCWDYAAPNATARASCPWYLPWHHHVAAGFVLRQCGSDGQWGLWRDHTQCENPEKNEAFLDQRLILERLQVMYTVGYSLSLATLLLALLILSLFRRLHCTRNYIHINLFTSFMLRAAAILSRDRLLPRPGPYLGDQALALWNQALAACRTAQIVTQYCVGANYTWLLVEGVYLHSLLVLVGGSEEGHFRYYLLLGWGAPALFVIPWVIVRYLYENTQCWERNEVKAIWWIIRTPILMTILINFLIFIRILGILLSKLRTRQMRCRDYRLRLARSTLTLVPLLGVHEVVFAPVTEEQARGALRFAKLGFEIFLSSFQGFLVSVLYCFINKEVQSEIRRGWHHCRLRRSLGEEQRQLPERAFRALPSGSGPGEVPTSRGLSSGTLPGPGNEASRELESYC

Glucagon receptor [3] = biological target: T1, Glucagon receptor; assay: Agonist activity at human GCG receptor expressed in HEK293 cells assessed as increase in cAMP level after 5 hrs by CRE driven luciferase reporter gene assay
[4] = biological target: T3, Glucagon-like peptide 1 receptor (Homo sapiens, UniProt P43220); assay: Agonist activity at human GLP1 receptor expressed in HEK293 cells assessed as increase in cAMP level after 5 hrs by CRE driven luciferase reporter gene assay
[5] = biological target: T4, Gastric inhibitory polypeptide receptor (Homo sapiens, UniProt P48546); assay: Agonist activity at human GIP receptor expressed in HEK293 cells assessed as increase in cAMP level after 5 hrs by CRE driven luciferase reporter gene assay
T4 sequence (P48546 whole entry): T2 sequence (whole entry)

[6] = biological target: T3, Glucagon-like peptide 1 receptor; assay: Agonist activity at human GLP1 receptor expressed in HEK293 cells assessed as increase in cAMP level after 5 hrs by CRE driven luciferase reporter gene assay relative to GLP1; set-up: concentration or dose not given beside the values

T1 sequence (P47871 whole entry): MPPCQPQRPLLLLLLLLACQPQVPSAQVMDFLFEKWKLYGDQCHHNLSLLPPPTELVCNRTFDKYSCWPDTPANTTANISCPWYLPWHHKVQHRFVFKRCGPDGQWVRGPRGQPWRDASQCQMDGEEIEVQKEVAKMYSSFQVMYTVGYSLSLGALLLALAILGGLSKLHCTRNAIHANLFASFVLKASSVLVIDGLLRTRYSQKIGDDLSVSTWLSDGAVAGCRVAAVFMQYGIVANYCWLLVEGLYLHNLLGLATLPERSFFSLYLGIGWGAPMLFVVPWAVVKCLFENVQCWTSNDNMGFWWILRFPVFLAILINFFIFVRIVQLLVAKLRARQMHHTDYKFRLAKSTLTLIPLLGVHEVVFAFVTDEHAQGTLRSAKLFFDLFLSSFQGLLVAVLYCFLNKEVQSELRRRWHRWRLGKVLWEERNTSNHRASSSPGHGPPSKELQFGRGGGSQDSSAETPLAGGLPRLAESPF
T3 sequence (P43220 whole entry): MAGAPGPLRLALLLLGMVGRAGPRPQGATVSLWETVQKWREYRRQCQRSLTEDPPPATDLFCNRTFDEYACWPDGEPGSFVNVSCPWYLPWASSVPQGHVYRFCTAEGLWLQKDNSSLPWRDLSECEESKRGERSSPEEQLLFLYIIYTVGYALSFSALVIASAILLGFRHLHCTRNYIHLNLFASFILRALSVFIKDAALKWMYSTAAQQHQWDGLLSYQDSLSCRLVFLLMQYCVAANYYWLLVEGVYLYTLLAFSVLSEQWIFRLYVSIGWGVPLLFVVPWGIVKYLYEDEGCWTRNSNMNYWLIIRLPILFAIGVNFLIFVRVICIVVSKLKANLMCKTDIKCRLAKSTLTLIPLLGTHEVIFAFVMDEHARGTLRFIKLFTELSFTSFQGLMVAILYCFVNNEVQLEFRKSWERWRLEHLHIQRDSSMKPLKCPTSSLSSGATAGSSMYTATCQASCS

| Compound | Activity (Glucagon receptor [1]) [%] | Activity [2] [%] | EC50 (Glucagon receptor [3]) [pM] | EC50 [4] [pM] | EC50 [5] [pM] | Activity [6] [%] |
| --- | --- | --- | --- | --- | --- | --- |
| CCCCCCCCCCCCCCCC(=O)N[C@@H](CCC(=O)NCCCC[C@H](NC(=O)[C@H](CC(=O)O)NC(=O)[C@H](CO)NC(=O)[C@@H](NC(=O)[C@H](Cc1ccccc1)NC(=O)[C@@H](NC(=O)CNC(=O)[C@H](CCC(N)=O)NC(=O)[C@@H](CO)NC(=O)[C@@H](N)Cc1cnc[nH]1)[C@@H](C)O)[C@@H](C)O)C(=O)N[C@@H](CO)C(=O)N[C@@H](CCCCN)C(=O)N[C@@H](Cc1ccc(O)cc1)C(=O)N[C@@H](CC(C)C)C(=O)N[C@@H](CC(=O)O)C(=O)N[C@@H](CCC(=O)O)C(=O)N[C@@H](CCCNC(=N)N)C(=O)N[C@@H](C)C(=O)N[C@@H](C)C(=O)N[C@@H](CCC(N)=O)C(=O)N[C@@H](CC(=O)O)C(=O)N[C@@H](Cc1ccccc1)C(=O)N[C@H](C(=O)N[C@@H](CCC(N)=O)C(=O)N[C@@H](Cc1c[nH]c2ccccc12)C(=O)N[C@@H](CC(C)C)C(=O)N[C@@H](CC(C)C)C(=O)N[C@@H](CC(=O)O)C(=O)N[C@H](C(N)=O)[C@@H](C)O)C(C)C)C(=O)O | 533 | 1 | 6 | 3 | 1650 | 933 |
| CCCCCCCCCCCCCCCC(=O)N[C@@H](CCC(=O)NCCCC[C@H](NC(=O)[C@H](CC(=O)O)NC(=O)[C@H](CO)NC(=O)[C@@H](NC(=O)[C@H](Cc1ccccc1)NC(=O)[C@@H](NC(=O)CNC(=O)[C@H](CCC(N)=O)NC(=O)C(C)(C)NC(=O)[C@@H](N)Cc1cnc[nH]1)[C@@H](C)O)[C@@H](C)O)C(=O)N[C@@H](CO)C(=O)N[C@@H](CCCCN)C(=O)N[C@@H](Cc1ccc(O)cc1)C(=O)N[C@@H](CC(C)C)C(=O)N[C@@H](CC(=O)O)C(=O)NC(C)(C)C(=O)N[C@@H](CCCNC(=N)N)C(=O)N[C@@H](C)C(=O)N[C@@H](C)C(=O)N[C@@H](CCC(N)=O)C(=O)N[C@@H](CC(=O)O)C(=O)N[C@@H](Cc1ccccc1)C(=O)N[C@H](C(=O)N[C@@H](CCC(N)=O)C(=O)N[C@@H](Cc1c[nH]c2ccccc12)C(=O)N[C@@H](CC(C)C)C(=O)N[C@@H](CCSC)C(=O)N[C@@H](CC(=O)O)C(=O)N[C@H](C(N)=O)[C@@H](C)O)C(C)C)C(=O)O | 114 | 1 | 28 | 15 | 2190 | 187 |
| CCCCCCCCCCCCCCCC(=O)N[C@@H](CCC(=O)NCCCC[C@H](NC(=O)[C@H](CC(=O)O)NC(=O)[C@H](CO)NC(=O)[C@@H](NC(=O)[C@H](Cc1ccccc1)NC(=O)[C@@H](NC(=O)CNC(=O)[C@H](CCC(N)=O)NC(=O)[C@@H](CO)NC(=O)[C@@H](N)Cc1cnc[nH]1)[C@@H](C)O)[C@@H](C)O)C(=O)N[C@@H](CO)C(=O)N[C@@H](CCCCN)C(=O)N[C@@H](Cc1ccc(O)cc1)C(=O)N[C@@H](CC(C)C)C(=O)N[C@@H](CC(=O)O)C(=O)N[C@@H](CCC(=O)O)C(=O)N[C@@H](CCCNC(=N)N)C(=O)N[C@@H](C)C(=O)N[C@@H](C)C(=O)N[C@@H](CCC(N)=O)C(=O)N[C@@H](CC(=O)O)C(=O)N[C@@H](Cc1ccccc1)C(=O)N[C@H](C(=O)N[C@@H](CCC(N)=O)C(=O)N[C@@H](Cc1c[nH]c2ccccc12)C(=O)N[C@@H](CC(C)C)C(=O)N[C@@H](CC(C)C)C(=O)N[C@@H](CC(=O)O)C(=O)NCC(=O)N[C@@H](CCCNC(=N)N)C(=O)NCC(N)=O)C(C)C)C(=O)O | 800 | 2 |  |  |  | 1400 |
| CCCCCCCCCCCCCCCC(=O)N[C@@H](CCC(=O)NCCCC[C@H](NC(=O)[C@H](CC(=O)O)NC(=O)[C@H](CO)NC(=O)[C@@H](NC(=O)[C@H](Cc1ccccc1)NC(=O)[C@@H](NC(=O)CNC(=O)[C@H](CCC(N)=O)NC(=O)C(C)(C)NC(=O)[C@@H](N)Cc1cnc[nH]1)[C@@H](C)O)[C@@H](C)O)C(=O)N[C@@H](CO)C(=O)N[C@@H](CCCCN)C(=O)N[C@@H](Cc1ccc(O)cc1)C(=O)N[C@@H](CC(C)C)C(=O)N[C@@H](CC(=O)O)C(=O)N[C@@H](CCC(=O)O)C(=O)N[C@@H](CCCNC(=N)N)C(=O)N[C@@H](C)C(=O)N[C@@H](C)C(=O)N[C@@H](CCC(N)=O)C(=O)N[C@@H](CC(=O)O)C(=O)N[C@@H](Cc1ccccc1)C(=O)N[C@H](C(=O)N[C@@H](CCC(N)=O)C(=O)N[C@@H](Cc1c[nH]c2ccccc12)C(=O)N[C@@H](CC(C)C)C(=O)N[C@@H](CC(C)C)C(=O)N[C@@H](CC(=O)O)C(=O)N[C@H](C(N)=O)[C@@H](C)O)C(C)C)C(=O)O | 640 | 1 | 5 | 68 | 2030 | 41 |
| CCCCCCCCCCCCCCCC(=O)N[C@@H](CCC(=O)NCCCC[C@H](NC(=O)[C@H](CC(=O)O)NC(=O)[C@H](CO)NC(=O)[C@@H](NC(=O)[C@H](Cc1ccccc1)NC(=O)[C@@H](NC(=O)CNC(=O)[C@H](CCC(N)=O)NC(=O)[C@@H](CO)NC(=O)[C@@H](N)Cc1cnc[nH]1)[C@@H](C)O)[C@@H](C)O)C(=O)N[C@@H](CO)C(=O)N[C@@H](CCCCN)C(=O)N[C@@H](Cc1ccc(O)cc1)C(=O)N[C@@H](CC(C)C)C(=O)N[C@@H](CC(=O)O)C(=O)N[C@@H](CCC(=O)O)C(=O)N[C@@H](CCC(N)=O)C(=O)N[C@@H](C)C(=O)N[C@@H](C)C(=O)N[C@@H](CCCCN)C(=O)N[C@@H](CCC(=O)O)C(=O)N[C@@H](Cc1ccccc1)C(=O)N[C@H](C(=O)N[C@@H](C)C(=O)N[C@@H](Cc1c[nH]c2ccccc12)C(=O)N[C@@H](CC(C)C)C(=O)N[C@@H](CCSC)C(=O)N[C@@H](CC(N)=O)C(=O)N[C@H](C(N)=O)[C@@H](C)O)[C@@H](C)CC)C(=O)O | 78 | 1 | 41 | 39 | 2690 | 72 |
| CC[C@H](C)[C@H](NC(=O)[C@H](Cc1ccccc1)NC(=O)[C@H](CCC(=O)O)NC(=O)[C@@H]1CCCCNC(=O)CC[C@H](NC(=O)[C@H](CC(=O)O)NC(=O)[C@H](CC(C)C)NC(=O)[C@H](Cc2ccc(O)cc2)NC(=O)[C@H](CCCCN)NC(=O)[C@H](CO)NC(=O)[C@H](Cc2ccc(O)cc2)NC(=O)[C@H](CC(=O)O)NC(=O)[C@H](CO)NC(=O)[C@@H](NC(=O)[C@H](Cc2ccccc2)NC(=O)[C@@H](NC(=O)CNC(=O)[C@H](CCC(N)=O)NC(=O)[C@H](CO)NC(=O)[C@@H](N)Cc2cnc[nH]2)[C@@H](C)O)[C@@H](C)O)C(=O)N[C@@H]([C@@H](C)CC)C(=O)N[C@@H](Cc2cnc[nH]2)C(=O)N[C@@H](CCC(N)=O)C(=O)N1)C(=O)N[C@@H](C)C(=O)N[C@@H](Cc1c[nH]c2ccccc12)C(=O)N[C@@H](CC(C)C)C(=O)N[C@@H](CCSC)C(=O)N[C@@H](CC(N)=O)C(=O)N[C@H](C(N)=O)[C@@H](C)O | 21 | 0 | 150 | 140 | 5530 | 20 |
| CCCCCCCCCCCCCCCC(=O)N[C@@H](CCC(=O)NCCCC[C@H](NC(=O)[C@H](CC(=O)O)NC(=O)[C@H](CO)NC(=O)[C@@H](NC(=O)[C@H](Cc1ccccc1)NC(=O)[C@@H](NC(=O)CNC(=O)[C@H](CCC(N)=O)NC(=O)C(C)(C)NC(=O)[C@@H](N)Cc1cnc[nH]1)[C@@H](C)O)[C@@H](C)O)C(=O)N[C@@H](CO)C(=O)N[C@@H](CCCCN)C(=O)N[C@@H](Cc1ccc(O)cc1)C(=O)N[C@@H](CC(C)C)C(=O)N[C@@H](CC(=O)O)C(=O)N[C@@H](CCC(=O)O)C(=O)N[C@@H](CCCNC(=N)N)C(=O)N[C@@H](C)C(=O)N[C@@H](C)C(=O)N[C@@H](CCC(N)=O)C(=O)N[C@@H](CC(=O)O)C(=O)N[C@@H](Cc1ccccc1)C(=O)N[C@H](C(=O)N[C@@H](CCC(N)=O)C(=O)N[C@@H](Cc1c[nH]c2ccccc12)C(=O)N[C@@H](CC(C)C)C(=O)N[C@@H](CC(C)C)C(=O)N[C@@H](CC(=O)O)C(=O)NCC(=O)N[C@@H](CCCNC(=N)N)C(=O)NCC(N)=O)C(C)C)C(=O)O | 457 | 15 |  | 4 | 133 | 700 |
| CCCCCCCCCCCCCCCC(=O)N[C@@H](CCC(=O)NCCCC[C@H](NC(=O)[C@H](CC(=O)O)NC(=O)[C@H](CO)NC(=O)[C@@H](NC(=O)[C@H](Cc1ccccc1)NC(=O)[C@@H](NC(=O)CNC(=O)[C@H](CCC(N)=O)NC(=O)[C@@H](C)NC(=O)[C@@H](N)Cc1cnc[nH]1)[C@@H](C)O)[C@@H](C)O)C(=O)N[C@@H](CO)C(=O)N[C@@H](CCCCN)C(=O)N[C@@H](Cc1ccc(O)cc1)C(=O)N[C@@H](CC(C)C)C(=O)N[C@@H](CC(=O)O)C(=O)N[C@@H](CCC(=O)O)C(=O)N[C@@H](CCCNC(=N)N)C(=O)N[C@@H](C)C(=O)N[C@@H](C)C(=O)N[C@@H](CCC(N)=O)C(=O)N[C@@H](CC(=O)O)C(=O)N[C@@H](Cc1ccccc1)C(=O)N[C@H](C(=O)N[C@@H](CCC(N)=O)C(=O)N[C@@H](Cc1c[nH]c2ccccc12)C(=O)N[C@@H](CC(C)C)C(=O)N[C@@H](CC(C)C)C(=O)N[C@@H](CC(=O)O)C(=O)N[C@H](C(N)=O)[C@@H](C)O)C(C)C)C(=O)O | 356 | 1 | 9 | 40 |  | 70 |
